From PubChem BioAssay AID1259407 (Chemical Carcinogenesis Research Information System (CCRIS), 2018)
Calls of active or inactive are those of the source. The rule behind the calls is not given here.

Tested on: CCRIS mutagenicity, Ames/micronucleus/aberration tests
Test: CCRIS mutagenicity studies
[1] = Test System: AMES SALMONELLA TYPHIMURIUM, Strain/Indicator: TA98, Metabolic Activation: HAMSTER, LIVER, S-9, AROCLOR 1254 (10%), Method: PREINCUBATION
[2] = Test System: AMES SALMONELLA TYPHIMURIUM, Strain/Indicator: TA98, Metabolic Activation: NONE, Method: PREINCUBATION
[3] = Test System: AMES SALMONELLA TYPHIMURIUM, Strain/Indicator: TA98, Metabolic Activation: RAT, LIVER, S-9, AROCLOR 1254 (10%), Method: PREINCUBATION
[4] = Test System: AMES SALMONELLA TYPHIMURIUM, Strain/Indicator: TA100, Metabolic Activation: HAMSTER, LIVER, S-9, AROCLOR 1254 (10%), Method: PREINCUBATION
[5] = Test System: AMES SALMONELLA TYPHIMURIUM, Strain/Indicator: TA100, Metabolic Activation: NONE, Method: PREINCUBATION
[6] = Test System: AMES SALMONELLA TYPHIMURIUM, Strain/Indicator: TA100, Metabolic Activation: RAT, LIVER, S-9, AROCLOR 1254 (10%), Method: PREINCUBATION
[7] = Test System: AMES SALMONELLA TYPHIMURIUM, Strain/Indicator: TA1535, Metabolic Activation: HAMSTER, LIVER, S-9, AROCLOR 1254 (10%), Method: PREINCUBATION
[8] = Test System: AMES SALMONELLA TYPHIMURIUM, Strain/Indicator: TA1535, Metabolic Activation: NONE, Method: PREINCUBATION
[9] = Test System: AMES SALMONELLA TYPHIMURIUM, Strain/Indicator: TA1535, Metabolic Activation: RAT, LIVER, S-9, AROCLOR 1254 (10%), Method: PREINCUBATION
[10] = Test System: AMES SALMONELLA TYPHIMURIUM, Strain/Indicator: TA1537, Metabolic Activation: NONE, Method: PREINCUBATION

CC(CCl)OP(=O)(OC(C)CCl)OC(C)CCl (stereo not given)
mutagenic call (Test System: AMES SALMONELLA TYPHIMURIUM, Strain/Indicator: TA97, Metabolic Activation: HAMSTER, LIVER, S-9, AROCLOR 1254 (10%), Method: PREINCUBATION): inactive; negative | mutagenic call (Test System: AMES SALMONELLA TYPHIMURIUM, Strain/Indicator: TA97, Metabolic Activation: HAMSTER, LIVER, S-9, AROCLOR 1254 (30%), Method: PREINCUBATION): inactive; negative | mutagenic call (Test System: AMES SALMONELLA TYPHIMURIUM, Strain/Indicator: TA97, Metabolic Activation: NONE, Method: PREINCUBATION): inactive; negative | mutagenic call (Test System: AMES SALMONELLA TYPHIMURIUM, Strain/Indicator: TA97, Metabolic Activation: RAT, LIVER, S-9, AROCLOR 1254 (10%), Method: PREINCUBATION): inactive; negative | mutagenic call (Test System: AMES SALMONELLA TYPHIMURIUM, Strain/Indicator: TA97, Metabolic Activation: RAT, LIVER, S-9, AROCLOR 1254 (30%), Method: PREINCUBATION): inactive; negative | mutagenic call [1]: inactive; negative | mutagenic call (Test System: AMES SALMONELLA TYPHIMURIUM, Strain/Indicator: TA98, Metabolic Activation: HAMSTER, LIVER, S-9, AROCLOR 1254 (30%), Method: PREINCUBATION): inactive; negative | mutagenic call [2]: inactive; negative | mutagenic call [3]: inactive; negative | mutagenic call (Test System: AMES SALMONELLA TYPHIMURIUM, Strain/Indicator: TA98, Metabolic Activation: RAT, LIVER, S-9, AROCLOR 1254 (30%), Method: PREINCUBATION): inactive; negative | mutagenic call [4]: inactive; negative | mutagenic call (Test System: AMES SALMONELLA TYPHIMURIUM, Strain/Indicator: TA100, Metabolic Activation: HAMSTER, LIVER, S-9, AROCLOR 1254 (30%), Method: PREINCUBATION): inactive; negative | mutagenic call [5]: inactive; negative | mutagenic call [6]: inactive; negative | mutagenic call (Test System: AMES SALMONELLA TYPHIMURIUM, Strain/Indicator: TA100, Metabolic Activation: RAT, LIVER, S-9, AROCLOR 1254 (30%), Method: PREINCUBATION): inactive; negative | mutagenic call [7]: inactive; negative | mutagenic call (Test System: AMES SALMONELLA TYPHIMURIUM, Strain/Indicator: TA1535, Metabolic Activation: HAMSTER, LIVER, S-9, AROCLOR 1254 (30%), Method: PREINCUBATION): inactive; negative | mutagenic call [8]: inactive; negative | mutagenic call (Test System: AMES SALMONELLA TYPHIMURIUM, Strain/Indicator: TA1535, Metabolic Activation: RAT, LIVER, S-9, AROCLOR 1254 (5 OR 30%), Method: PREINCUBATION): inactive; negative | mutagenic call [9]: inactive; negative | mutagenic call (Test System: AMES SALMONELLA TYPHIMURIUM, Strain/Indicator: TA1537, Metabolic Activation: HAMSTER, LIVER, S-9, AROCLOR 1254 (30%), Method: PREINCUBATION): inactive; negative | mutagenic call [10]: inactive; negative | mutagenic call (Test System: AMES SALMONELLA TYPHIMURIUM, Strain/Indicator: TA1537, Metabolic Activation: RAT, LIVER, S-9, AROCLOR 1254 (30%), Method: PREINCUBATION): inactive; negative

CC\C=C/C=C\C=C/C=C\C=C/C=C\OCC(O)CO (stereo not given)
mutagenic call [5]: active; positive

Oc1c(Br)cc(Br)cc1Br
mutagenic call [1]: inactive; negative | mutagenic call (Test System: AMES SALMONELLA TYPHIMURIUM, Strain/Indicator: TA98, Metabolic Activation: HAMSTER, LIVER, S-9, AROCLOR 1254, Method: STANDARD PLATE): inactive; negative | mutagenic call [2]: inactive; negative | mutagenic call (Test System: AMES SALMONELLA TYPHIMURIUM, Strain/Indicator: TA98, Metabolic Activation: NONE, Method: STANDARD PLATE): inactive; negative | mutagenic call [3]: inactive; negative | mutagenic call (Test System: AMES SALMONELLA TYPHIMURIUM, Strain/Indicator: TA98, Metabolic Activation: RAT, LIVER, S-9, AROCLOR 1254, Method: STANDARD PLATE): inactive; negative | mutagenic call [4]: inactive; negative | mutagenic call (Test System: AMES SALMONELLA TYPHIMURIUM, Strain/Indicator: TA100, Metabolic Activation: HAMSTER, LIVER, S-9, AROCLOR 1254, Method: STANDARD PLATE): inactive; negative | mutagenic call [5]: inactive; negative | mutagenic call (Test System: AMES SALMONELLA TYPHIMURIUM, Strain/Indicator: TA100, Metabolic Activation: NONE, Method: STANDARD PLATE): inactive; negative | mutagenic call [6]: inactive; negative | mutagenic call (Test System: AMES SALMONELLA TYPHIMURIUM, Strain/Indicator: TA100, Metabolic Activation: RAT, LIVER, S-9, AROCLOR 1254, Method: STANDARD PLATE): inactive; negative | mutagenic call [7]: inactive; negative | mutagenic call (Test System: AMES SALMONELLA TYPHIMURIUM, Strain/Indicator: TA1535, Metabolic Activation: HAMSTER, LIVER, S-9, AROCLOR 1254, Method: STANDARD PLATE): inactive; negative | mutagenic call [8]: inactive; negative | mutagenic call (Test System: AMES SALMONELLA TYPHIMURIUM, Strain/Indicator: TA1535, Metabolic Activation: NONE, Method: STANDARD PLATE): inactive; negative | mutagenic call [9]: inactive; negative | mutagenic call (Test System: AMES SALMONELLA TYPHIMURIUM, Strain/Indicator: TA1535, Metabolic Activation: RAT, LIVER, S-9, AROCLOR 1254, Method: STANDARD PLATE): inactive; negative | mutagenic call (Test System: AMES SALMONELLA TYPHIMURIUM, Strain/Indicator: TA1537, Metabolic Activation: HAMSTER, LIVER, S-9, AROCLOR 1254 (10%), Method: PREINCUBATION): inactive; negative | mutagenic call (Test System: AMES SALMONELLA TYPHIMURIUM, Strain/Indicator: TA1537, Metabolic Activation: HAMSTER, LIVER, S-9, AROCLOR 1254, Method: STANDARD PLATE): inactive; negative | mutagenic call [10]: inactive; negative | mutagenic call (Test System: AMES SALMONELLA TYPHIMURIUM, Strain/Indicator: TA1537, Metabolic Activation: NONE, Method: STANDARD PLATE): inactive; negative | mutagenic call (Test System: AMES SALMONELLA TYPHIMURIUM, Strain/Indicator: TA1537, Metabolic Activation: RAT, LIVER, S-9, AROCLOR 1254 (10%), Method: PREINCUBATION): inactive; negative | mutagenic call (Test System: AMES SALMONELLA TYPHIMURIUM, Strain/Indicator: TA1537, Metabolic Activation: RAT, LIVER, S-9, AROCLOR 1254, Method: STANDARD PLATE): inactive; negative | mutagenic call (Test System: AMES SALMONELLA TYPHIMURIUM, Strain/Indicator: TA1538, Metabolic Activation: HAMSTER, LIVER, S-9, AROCLOR 1254, Method: STANDARD PLATE): inactive; negative | mutagenic call (Test System: AMES SALMONELLA TYPHIMURIUM, Strain/Indicator: TA1538, Metabolic Activation: NONE, Method: STANDARD PLATE): inactive; negative | mutagenic call (Test System: AMES SALMONELLA TYPHIMURIUM, Strain/Indicator: TA1538, Metabolic Activation: RAT, LIVER, S-9, AROCLOR 1254, Method: STANDARD PLATE): inactive; negative | mutagenic call (Test System: MOUSE LYMPHOMA, Strain/Indicator: L5178Y (TK+/TK-), Metabolic Activation: NONE, Method: SUSPENSION/PLATE): active; positive. reevaluation of results: positive | mutagenic call (Test System: MOUSE LYMPHOMA, Strain/Indicator: L5178Y (TK+/TK-), Metabolic Activation: RAT, LIVER, S-9, AROCLOR 1254, Method: SUSPENSION/PLATE): inactive; negative. reevaluation of results: negative | mutagenic call (Test System: Mouse lymphoma, Strain/Indicator: L5178Y (tk+/tk-), Metabolic Activation: None, Method: Suspension/plate): active; positive | mutagenic call (Test System: Mouse lymphoma, Strain/Indicator: L5178Y (tk+/tk-), Metabolic Activation: Rat, Liver, S-9, Aroclor 1254, Method: Suspension/plate): inactive; negative
